Assay results from PMC7413254 (Nature Communications, 2020).

Columns and labels:
[1] = target: PfCRT^3D7 (Plasmodium falciparum, UniProt Q8IBZ9); experiment: cell-based; conditions: for IC50: mean ± SEM, n = 5, SEM
Description: (§1) The characterisation of [^3H]VF-6 transport via 23 different field and laboratory-derived isoforms of PfCRT was undertaken with oocytes two days post-cRNA-injection (Figs. 3a–j, 4; Supplementary Fig. 2). The oocytes were injected with 25 nL of ND96 buffer (pH 5.5) supplemented with [^3H]VF-6 and unlabelled VF-6 to achieve estimated intracellular concentrations of 1.4 and 200 μM, respectively. Ten oocytes that had resealed at the injection site were transferred to a 5 mL polystyrene round bottom tube (In Vitro Technologies) and washed with 3.5 mL of ND96 buffer before being transferred to separate wells of a white 96-well plate (PerkinElmer). This treatment served to establish the amount of radioactivity within the oocytes immediately prior to the commencement of the transport assay. Another 10 resealed oocytes were transferred to a 5 mL tube and washed with 3.5 mL of ND96 buffer. […] The assay was terminated by removing the reaction buffer with a pipette and washing the oocytes twice with 3.5 mL of ice-cold ND96 buffer. Each oocyte was transferred to a separate well of a white 96-well plate. The oocytes were lysed by the addition of 20 μL of 10% (w/v) SDS and overnight incubation at room temperature. The lysed oocyte was then combined with 150 μL of MicroScint-40 microscintillant (PerkinElmer), the plate covered with a TopSeal-A (PerkinElmer), and the radioactivity measured with a MicroBeta^2 microplate liquid scintillation analyser (PerkinElmer). VF-6 transport was calculated by subtracting the amount of radioactivity (measured in counts per minute) present within the oocytes at the end of the incubation from that measured in the oocytes sampled immediately before the commencement of the assay. The pH-dependence of transport (Fig. 3c) was determined by injecting the oocytes with [^3H]VF-6 suspended in 25 nL ND96 buffer adjusted to pH 5.0, 5.5, 6.0 or 7.0, which corresponded to the injection of 2.5–250 fmol of H^+. The dependence of [^3H]VF-6 transport on Na^+ or Cl^− was examined by injecting the oocytes with [^3H]VF-6 suspended in the control ND96 buffer (pH 5.5) or a version of this buffer that lacked either Na^+ or Cl^− (Supplementary Fig. 2). […] The dependence of peptide transport on Ca^2+ was determined by injecting the oocytes with [^3H]VF-6 suspended in ND96 buffers that contained different concentrations of Ca^2+ (0–5 mM; Supplementary Fig. 2). […] The dependence of PfCRT-mediated transport on the membrane potential was examined by using (1) Na^+ ionophore III in conjunction with the Na^+ gradients listed in Supplementary Data 7 and (2) Cl^− ionophore III in conjunction with the Cl^− gradients listed in Supplementary Data 7 to clamp the membrane potential of the oocyte from −80 to +80 mV. […] The kinetic parameters for VF-6 transport via different isoforms of PfCRT (Figs. 3e and 4a) were determined in SigmaPlot Windows Version 11.0 by a least-squares fit of the Michaelis–Menten equation to the data.
(§2) A subset of assays measured the ability of solutes known to interact with PfCRT to either cis-inhibit, trans-inhibit or trans-stimulate [^3H]VF-6 transport. These experiments involved adding these solutes to either the cis- or trans-side of the membrane relative to [^3H]VF-6. […] At least five independent experiments were performed (on different days and using oocytes from different frogs), and within each experiment measurements were made from ten oocytes per treatment.

[2] = target: PfCRT^Dd2 (Plasmodium falciparum, UniProt Q9N623, A220S/I356T/K76T/M74I/N326S/N75E/Q271E/R371I); experiment: cell-based; conditions: mean ± SEM, n = 5, SEM
PfCRT^Dd2, sequence (Q9N623 whole entry A220S/I356T/K76T/M74I/N326S/N75E/Q271E/R371I): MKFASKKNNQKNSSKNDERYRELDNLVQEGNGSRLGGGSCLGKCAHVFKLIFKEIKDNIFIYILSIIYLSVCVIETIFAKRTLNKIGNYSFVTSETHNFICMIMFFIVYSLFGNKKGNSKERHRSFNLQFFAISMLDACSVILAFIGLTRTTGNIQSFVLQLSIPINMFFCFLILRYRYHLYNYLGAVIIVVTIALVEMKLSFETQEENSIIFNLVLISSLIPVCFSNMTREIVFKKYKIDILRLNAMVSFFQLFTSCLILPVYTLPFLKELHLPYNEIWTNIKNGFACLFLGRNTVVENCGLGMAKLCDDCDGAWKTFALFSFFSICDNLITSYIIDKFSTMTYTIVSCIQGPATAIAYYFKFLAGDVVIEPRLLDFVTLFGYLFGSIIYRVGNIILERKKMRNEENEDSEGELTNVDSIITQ
Description: as §1, §2

[3] = target: PfCRT^Ecu1110 (Plasmodium falciparum, UniProt Q9N623, A220S/I356L/K76T/N326D); experiment: cell-based; conditions: mean ± SEM, n = 5, SEM
PfCRT^Ecu1110, sequence (Q9N623 whole entry A220S/I356L/K76T/N326D): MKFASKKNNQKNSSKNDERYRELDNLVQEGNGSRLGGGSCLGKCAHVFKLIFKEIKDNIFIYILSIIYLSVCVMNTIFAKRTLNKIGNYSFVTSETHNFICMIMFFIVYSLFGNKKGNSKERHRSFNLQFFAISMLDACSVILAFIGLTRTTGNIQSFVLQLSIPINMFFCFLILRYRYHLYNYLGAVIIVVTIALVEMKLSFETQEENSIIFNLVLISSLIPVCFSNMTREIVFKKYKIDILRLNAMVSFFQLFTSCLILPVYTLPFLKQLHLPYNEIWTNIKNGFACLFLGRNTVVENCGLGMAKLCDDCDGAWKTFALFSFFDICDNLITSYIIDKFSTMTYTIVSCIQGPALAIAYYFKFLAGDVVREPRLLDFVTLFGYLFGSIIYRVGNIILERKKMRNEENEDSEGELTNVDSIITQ
Description: as §1, §2

[4] = target: T1, PfCRT^3D7 in C2^GC03 parasites (Plasmodium falciparum, UniProt Q8IBZ9); experiment: P. falciparum H+-efflux assay (rate of DV alkalinisation after concanamycin A); format: cell-based; conditions: C2GC03; test solute 10 μM
T1 construct: PfCRT also functions as a peptide transporter within its native environment of the DV membrane; expressed in transfected cells; host or cells: P. falciparum pfcrt transfectant line C2^GC03 (saponin-isolated trophozoites)
T1 sequence (Q8IBZ9 1-424): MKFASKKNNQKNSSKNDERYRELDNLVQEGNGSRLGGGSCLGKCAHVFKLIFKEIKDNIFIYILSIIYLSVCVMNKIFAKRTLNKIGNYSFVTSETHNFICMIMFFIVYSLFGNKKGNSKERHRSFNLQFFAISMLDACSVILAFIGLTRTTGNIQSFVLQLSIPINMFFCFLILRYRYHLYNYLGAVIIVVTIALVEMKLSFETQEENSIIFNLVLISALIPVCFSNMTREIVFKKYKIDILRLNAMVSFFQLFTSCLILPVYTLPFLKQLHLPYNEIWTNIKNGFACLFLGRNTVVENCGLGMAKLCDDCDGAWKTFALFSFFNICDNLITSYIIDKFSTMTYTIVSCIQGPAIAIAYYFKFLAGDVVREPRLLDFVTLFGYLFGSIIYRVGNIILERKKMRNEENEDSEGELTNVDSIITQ

[5] = tested on: PfCRT; experiment: Test of solutes as potential co-substrates for influx of VF-6 via PfCRT into the oocyte; format: cell-based, Plasmodium falciparum; set-up: key: X: Compounds that have been tested as potential co-substrates but are not required for influx of VF-6 via PfCRT into the oocyte; conditions: X = tested

Row | SMILES | Tested as potential co-substrate but not required for influx of VF-6 via PfCRT into the oocyte [5] | also measured
1 | CCN(CC)CCCC(C)Nc1ccnc2cc(Cl)ccc12 (centres unmarked) [CQ, chloroquine, reference compound] | – | IC50 ([1]; Cis-inhibition IC50 of [3H]VF-6 transport, PfCRT3D7, drug on same side as [3H]VF-6): 110 ± 5.9 µM; IC50 ([1]; Trans-inhibition IC50 of [3H]VF-6 transport, PfCRT3D7, drug on opposite side to [3H]VF-6): 77 ± 5.2 µM; Extracellular concentration giving modest trans-stimulation of [3H]VF-6 transport ([1]; all three PfCRT isoforms): ≥ 500 µM; IC50 ([2]; Cis-inhibition IC50 of [3H]VF-6 transport, PfCRTDd2, drug on same side as [3H]VF-6): 53 ± 2.8 µM; IC50 ([2]; Trans-inhibition IC50 of [3H]VF-6 transport, PfCRTDd2, drug on opposite side to [3H]VF-6): 54 ± 3.6 µM; IC50 ([3]; Cis-inhibition IC50 of [3H]VF-6 transport, PfCRTEcu1110, drug on same side as [3H]VF-6): 72 ± 3.1 µM; IC50 ([3]; Trans-inhibition IC50 of [3H]VF-6 transport, PfCRTEcu1110, drug on opposite side to [3H]VF-6): 62 ± 2.6 µM; Effect on rate of DV alkalinisation / H+ leak (in words) [4]: decrease slightly
2 | C[C@H](N)C(=O)O [L-alanine] | X | –
3 | N=C(N)NCCC[C@H](N)C(=O)O [L-arginine] | X | –
4 | NC(=O)C[C@H](N)C(=O)O [L-asparagine] | X | –
5 | N[C@@H](CS)C(=O)O [L-cysteine] | X | –
6 | N[C@@H](CCC(=O)O)C(=O)O [L-glutamic acid] | X | –
7 | NC(=O)CC[C@H](N)C(=O)O [L-glutamine] | X | –
8 | CC[C@H](C)[C@H](N)C(=O)O [L-isoleucine] | X | –
9 | CC(C)C[C@H](N)C(=O)O [L-leucine] | X | –
10 | NCCCC[C@H](N)C(=O)O [L-lysine] | X | –
